Here are results for one substance from patent US20240307500A1, “SUSTAINED RELEASE FORMULATION COMPOSITION COMPRISING SEMAGLUTIDE OR PHARMACEUTICALLY ACCEPTABLE SALT THEREOF” (PEPTRON, INC., priority 2021, published 2024).

For this experiment, the system named is SD rats. In words: Oral glucose tolerance test (OGTT), hypoglycemic effects after single SC injection. It is filed as in vivo. Conditions: single SC 0.123 mpk semaglutide. On the procedure:
An oral glucose tolerance test (OGTT) was performed to confirm hypoglycemic effects of the sustained-release microspheres including semaglutide of the present invention. First, the experiment was conducted by dividing 8-week-old SD rats (18 rats; 6 rats in each group) into 3 groups. It was divided into a negative control group (Control), a positive control group (API) and Example 3 formulation administration group (PT403)), wherein the positive control group (API) was subcutaneously injected once with 0.123 mpk of semaglutide, and the Example 3 formulation administration group (PT403) was injected with the Example 3 formulation subcutaneously with 4 mpk.
After drug administration, total 5 OGTTs (Days 1, 7, 16, 21 and 28) were performed, and 2 g/kg of glucose was orally administered to SD rats fasted for 18 hours. Immediately after glucose administration, and after 15, 30, 60, 90, 120, and 180 minutes, blood was collected from the tail to measure blood glucose.

As to “N^6,26-{18-[N-(17-carboxyheptadecanoyl)-L-γ-glutamyl]-10-oxo-3, 6, 12, 15-tetraoxa-9, 18-diazaoctadecanoyl}-[8-(2-amino-2-propanoic acid), 34-L-arginine] human glucan-like peptide 1 (7-37) [API]”, the “hypoglycemic effects (in words)” value is “returned to normal on the 7th day”.
